# Experimental data from ChEMBL document CHEMBL1201862, “PubChem BioAssay data set” (2004).
# The source made the active and inactive calls. For most assays here, no stated cut-off is given here; in the data, actives have a measured EC50 and inactives only a lower limit.
# Key:
# [1] = target: T1, Heat shock factor protein 1 (Mus musculus, UniProt P38532); assay: inhibition of MG132-induced HSE-luciferase signal, confirmation, cell-based, NIH3T3, luminescence, dose retest (AID 2382); format: functional;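 further: NIH3T3 fibroblasts with HSF1-driven luciferase reporter stressed by proteasome inhibitor MG132; luminescence from HSF1-driven luciferase expression after 8 hours of MG132 stress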
# T1 sequence (P38532 whole entry): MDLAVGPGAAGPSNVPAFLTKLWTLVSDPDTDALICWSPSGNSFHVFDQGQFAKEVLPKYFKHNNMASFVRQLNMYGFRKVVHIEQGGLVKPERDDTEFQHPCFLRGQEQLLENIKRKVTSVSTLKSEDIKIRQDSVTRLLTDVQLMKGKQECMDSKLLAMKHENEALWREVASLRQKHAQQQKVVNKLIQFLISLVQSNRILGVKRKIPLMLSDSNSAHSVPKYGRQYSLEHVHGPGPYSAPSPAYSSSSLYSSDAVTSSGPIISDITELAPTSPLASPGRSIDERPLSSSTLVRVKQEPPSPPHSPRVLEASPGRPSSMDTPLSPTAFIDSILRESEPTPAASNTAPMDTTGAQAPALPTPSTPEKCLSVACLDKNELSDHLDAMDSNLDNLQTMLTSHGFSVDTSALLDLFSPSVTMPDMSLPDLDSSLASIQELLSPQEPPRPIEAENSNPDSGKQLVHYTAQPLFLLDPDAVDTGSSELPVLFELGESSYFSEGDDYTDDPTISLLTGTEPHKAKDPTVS
# [2] = target: T2, Calpain-2 catalytic subunit (Sus scrofa, UniProt P43367); assay: pig calpain II inhibitor potency, dose response, biochemical, fluorogenic peptide substrate (AID 1420); format: functional
# T2 sequence (P43367 whole entry): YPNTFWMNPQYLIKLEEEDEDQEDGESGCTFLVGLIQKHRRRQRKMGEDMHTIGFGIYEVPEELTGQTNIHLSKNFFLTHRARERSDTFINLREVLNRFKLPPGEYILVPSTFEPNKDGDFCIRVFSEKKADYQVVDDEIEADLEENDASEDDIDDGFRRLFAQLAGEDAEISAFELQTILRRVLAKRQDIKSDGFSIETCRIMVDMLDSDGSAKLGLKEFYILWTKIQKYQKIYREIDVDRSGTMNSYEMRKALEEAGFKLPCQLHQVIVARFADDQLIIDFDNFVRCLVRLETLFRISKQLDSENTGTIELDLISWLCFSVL
# [3] = Luminescence Cell-Based Dose Retest to Confirm Inhibitors of Cancer Stem Cells. [Related pubchem assays (depositor defined):AID2717, AID2721]; format: functional; settings: Homo sapiens
# [4] = target: T3, Rac GTPase-activating protein 1 (Homo sapiens, UniProt Q9H0H5); assay: MgcRacGAP GTPase-activating activity inhibitors, confirmation, biochemical, ADP Hunter fluorescence, primary and confirmatory (AID 624330); format: functional
# T3 sequence (Q9H0H5 whole entry): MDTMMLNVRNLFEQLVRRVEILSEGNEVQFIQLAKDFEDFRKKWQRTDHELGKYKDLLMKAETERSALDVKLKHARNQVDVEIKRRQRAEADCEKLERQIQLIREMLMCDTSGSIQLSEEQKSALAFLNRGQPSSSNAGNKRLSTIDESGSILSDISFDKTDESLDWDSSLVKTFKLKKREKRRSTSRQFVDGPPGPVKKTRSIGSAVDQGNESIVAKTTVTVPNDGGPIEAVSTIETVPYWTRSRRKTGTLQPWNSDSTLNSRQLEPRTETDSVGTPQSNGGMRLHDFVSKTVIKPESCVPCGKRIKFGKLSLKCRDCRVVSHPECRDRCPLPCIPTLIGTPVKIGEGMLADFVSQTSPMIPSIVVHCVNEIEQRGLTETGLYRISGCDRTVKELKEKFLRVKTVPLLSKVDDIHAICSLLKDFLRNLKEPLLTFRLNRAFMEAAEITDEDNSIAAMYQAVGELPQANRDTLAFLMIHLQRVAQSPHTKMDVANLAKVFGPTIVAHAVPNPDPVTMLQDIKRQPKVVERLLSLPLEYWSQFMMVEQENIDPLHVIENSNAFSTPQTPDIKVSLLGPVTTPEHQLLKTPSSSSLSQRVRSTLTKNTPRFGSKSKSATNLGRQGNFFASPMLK
# [5] = control 3'UTR Renilla luciferase suppression, dose response, counter-screen for Shn3 inhibitor project, cell-based, Clone20-Shn3RL, cherry-picked (AID 624133); format: functional
# [6] = Shn3 3'UTR reporter inhibitors, dose response, cell-based, Clone20 osteoblasts, firefly luciferase, cherry-picked (AID 624132); format: functional;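 further: firefly luciferase luminescence from reporter carrying the Shn3 3'UTR in osteoblasts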
# [7] = HepG2 cell cytotoxicity, dose response, cytotoxicity control for Shn3 inhibitor project, CellTiter-Glo, cherry-picked (AID 624134); format: functional, cell-based
# [8] = target: Luciferin 4-monooxygenase (Photinus pyralis, UniProt P08659); assay: firefly luciferase enzyme inhibitors, dose response, biochemical, luminescence (AID 1891)
# [9] = Luminescence Cell-Based Dose Confirmation HTS to Identify Inhibitors of Platelet Dense Granule Release. [Related pubchem assays: 1663 (Primary HTS), 1678 (Summary of Project)]; format: functional
# Protein skinhead-1 = target: T4, Protein skinhead-1 (Caenorhabditis elegans, UniProt P34707); format: functional
# T4 sequence (P34707 whole entry): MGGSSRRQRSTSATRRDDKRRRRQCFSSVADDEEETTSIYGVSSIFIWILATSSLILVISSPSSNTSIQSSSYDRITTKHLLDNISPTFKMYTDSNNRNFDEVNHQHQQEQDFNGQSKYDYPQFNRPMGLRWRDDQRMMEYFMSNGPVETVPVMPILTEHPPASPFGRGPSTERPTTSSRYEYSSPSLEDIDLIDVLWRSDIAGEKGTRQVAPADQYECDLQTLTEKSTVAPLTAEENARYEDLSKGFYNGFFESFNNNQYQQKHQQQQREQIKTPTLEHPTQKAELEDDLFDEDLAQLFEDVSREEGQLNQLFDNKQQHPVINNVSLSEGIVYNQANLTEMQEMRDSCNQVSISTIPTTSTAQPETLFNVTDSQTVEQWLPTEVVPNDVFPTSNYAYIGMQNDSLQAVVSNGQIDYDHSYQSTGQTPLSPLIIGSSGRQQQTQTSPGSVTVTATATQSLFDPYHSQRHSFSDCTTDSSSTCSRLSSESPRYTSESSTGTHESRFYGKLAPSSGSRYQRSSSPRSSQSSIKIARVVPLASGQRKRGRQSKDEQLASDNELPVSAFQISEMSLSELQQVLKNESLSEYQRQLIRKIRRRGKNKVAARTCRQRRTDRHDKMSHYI
# [10] = target: T5, RNA-binding protein pos-1 (Caenorhabditis elegans, UniProt G5EF15); assay: inhibitors of POS-1/mex-3 RNA binding, dose response, biochemical, fluorescence polarization (AID 1964);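 further: purified POS-1 fused to maltose binding protein made in E. coli; potency of compounds blocking POS-1 binding to fluorescent RNA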
# T5 sequence (G5EF15 whole entry): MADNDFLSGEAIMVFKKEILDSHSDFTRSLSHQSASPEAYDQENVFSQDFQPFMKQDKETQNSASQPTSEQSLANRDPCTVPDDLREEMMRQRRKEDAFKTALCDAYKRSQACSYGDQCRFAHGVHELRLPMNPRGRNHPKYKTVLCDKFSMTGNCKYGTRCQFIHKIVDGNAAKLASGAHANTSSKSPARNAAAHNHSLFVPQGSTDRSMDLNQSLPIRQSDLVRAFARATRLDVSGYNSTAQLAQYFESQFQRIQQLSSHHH
# [11] = target: T6, Zinc finger protein mex-5 (Caenorhabditis elegans, UniProt Q9XUB2); assay: MEX-5/TCR-2 RNA interaction inhibitors, dose response, biochemical, C. elegans, fluorescence polarization (AID 1960)
# T6 sequence (Q9XUB2 whole entry): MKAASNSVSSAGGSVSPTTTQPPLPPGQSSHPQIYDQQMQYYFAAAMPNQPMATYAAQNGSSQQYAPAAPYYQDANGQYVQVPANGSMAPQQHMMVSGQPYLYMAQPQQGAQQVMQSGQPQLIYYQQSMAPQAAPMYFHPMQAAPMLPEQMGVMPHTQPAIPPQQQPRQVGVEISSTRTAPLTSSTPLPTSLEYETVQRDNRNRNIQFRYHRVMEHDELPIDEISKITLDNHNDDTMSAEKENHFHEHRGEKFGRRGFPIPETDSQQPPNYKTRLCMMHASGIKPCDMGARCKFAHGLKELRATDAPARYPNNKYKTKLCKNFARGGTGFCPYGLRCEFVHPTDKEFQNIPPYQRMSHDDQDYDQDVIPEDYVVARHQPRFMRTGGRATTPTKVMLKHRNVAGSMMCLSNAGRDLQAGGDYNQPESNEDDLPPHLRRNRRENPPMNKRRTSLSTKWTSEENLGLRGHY
# [12] = system: Streptococcus sp. 'group A'; assay: growth inhibition of control SK(-) GAS strain, dose response, counter-screen for streptokinase expression inhibitor project, luminescence, kanamycin, BacTiterGlo, confirmation (AID 1900); format: functional, organism-based
# Streptococcus = assay: Group A Streptococcus viability loss, dose response, counter-screen for streptokinase expression inhibitor project, luminescence, BacTiterGlo (AID 1915); format: functional, organism-based;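 further: potency for reduction of bacterial viability or growth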
# Streptokinase A = target: T7, Streptokinase A (Streptococcus pyogenes serotype M1, UniProt P10520); assay: S. pyogenes streptokinase expression inhibitors, potency, dose response, plasminogen activation absorbance, OD405 (AID 1914); format: functional, Streptococcus pyogenes M1 GAS;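 further: secreted streptokinase activity via plasminogen activation per viability signal from cell pellet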
# T7 sequence (P10520 whole entry): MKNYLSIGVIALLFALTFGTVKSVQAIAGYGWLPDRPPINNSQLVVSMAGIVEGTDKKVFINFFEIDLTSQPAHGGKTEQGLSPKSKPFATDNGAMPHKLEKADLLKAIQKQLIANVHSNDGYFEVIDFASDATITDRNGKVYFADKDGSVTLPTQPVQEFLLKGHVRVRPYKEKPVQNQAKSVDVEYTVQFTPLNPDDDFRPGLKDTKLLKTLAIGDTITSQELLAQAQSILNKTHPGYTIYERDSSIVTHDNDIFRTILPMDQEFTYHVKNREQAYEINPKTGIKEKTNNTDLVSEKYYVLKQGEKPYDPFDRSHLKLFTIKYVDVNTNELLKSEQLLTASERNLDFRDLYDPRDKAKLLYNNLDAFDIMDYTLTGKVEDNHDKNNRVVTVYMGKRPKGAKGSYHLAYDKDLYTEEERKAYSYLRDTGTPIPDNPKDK
# Luciferin 4-monooxygenase, sequence (P08659 whole entry): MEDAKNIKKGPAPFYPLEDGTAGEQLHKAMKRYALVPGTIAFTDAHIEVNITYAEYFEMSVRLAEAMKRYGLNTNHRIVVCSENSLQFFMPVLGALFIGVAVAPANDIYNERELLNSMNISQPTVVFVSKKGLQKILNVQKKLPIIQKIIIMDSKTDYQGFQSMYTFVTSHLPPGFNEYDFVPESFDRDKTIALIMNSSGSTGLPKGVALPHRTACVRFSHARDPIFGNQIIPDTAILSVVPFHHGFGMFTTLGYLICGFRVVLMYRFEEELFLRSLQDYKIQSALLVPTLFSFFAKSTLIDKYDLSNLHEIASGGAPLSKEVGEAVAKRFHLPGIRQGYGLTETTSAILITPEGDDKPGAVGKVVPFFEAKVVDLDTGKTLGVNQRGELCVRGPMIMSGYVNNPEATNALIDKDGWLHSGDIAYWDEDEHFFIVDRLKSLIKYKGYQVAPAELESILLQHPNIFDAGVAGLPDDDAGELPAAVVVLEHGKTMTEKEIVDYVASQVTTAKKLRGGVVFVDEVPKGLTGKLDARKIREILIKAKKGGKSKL
smiles,measurement,setting,value
Cc1ccc(-c2nnc(SCC(=O)Nc3nccs3)n2N)cc1,EC50,[1],> 195 µM (not active)
O=C(Nc1cccc2oc(=O)ccc12)c1ccc([N+](=O)[O-])cc1[N+](=O)[O-],IC50,[2],5.83 µM (active)
COc1ccc(-n2c(C)c(C(C)=O)c(C(C)=O)c2C)cc1,EC50,[1],> 195 µM (not active)
Cc1ccc(-c2nc(NCc3ccco3)c3ccccc3n2)cc1,IC50,[2],7.69 µM (not active)
same,AC50,[3],9.72 µM (active)
COC(=O)C1(Cc2ccccc2)NC(c2ccccc2C)C2C(=O)N(c3ccc4c(c3)OCO4)C(=O)C21 (stereo unspecified),EC50,[1],> 195 µM (not active)
CCN(CC)c1ccc(/C=C2/SC(=O)N(C(C)C)C2=O)o1,IC50,[4],48.2 µM (active)
same,AC50,[5],7.5 µM (active)
same,AC50,[6],3.46 µM (active)
same,AC50,[7],58.9 µM (active)
O=C(NCC(=O)N1CCN(c2ccccc2O)CC1)c1ccc(Br)o1,EC50,[1],> 195 µM (not active)
O=C1Nc2ccccc2C1=Nc1ccc(-c2nnc3n2CCCCC3)cc1,EC50,[8],> 112 µM (not active)
same,EC50,[9],> 112 µM (not active)
O=[N+]([O-])c1ccc(OC/C=C2\Oc3ccc([N+](=O)[O-])cc3C2N2CCOCC2)cc1 (stereo unspecified),IC50,[2],6.21 µM (not active)
same,IC50,Protein skinhead-1,> 100 µM (inactive)
Cc1ccc(NC(=O)Cc2ccc(-n3cccc3)cc2)c(C)c1,EC50,[1],> 195 µM (not active)
CCCCOC(=O)CSC1=C(C#N)C(c2ccccc2OCC)C(C#N)C(=O)N1 (stereo unspecified),EC50,[10],> 300 µM (not active)
same,EC50,[11],> 300 µM (inconclusive)
CC1(C)c2ccccc2-n2c1cc1oc(=O)cc(O)c1c2=O,IC50,[2],1.02 µM (not active)
same,EC50,[12],> 150 µM (not active)
same,EC50,Streptococcus,> 150 µM (not active)
same,EC50,Streptokinase A,> 150 µM (not active)
COC(=O)c1c(C(=O)OC)c2n(c1C)Cc1ccccc1C2,EC50,[10],> 300 µM (not active)
same,EC50,[11],43.7 µM (active)
Cc1cc(C)c2oc(C(=O)Nc3ccc(S(=O)(=O)Nc4nccc(C)n4)cc3)cc(=O)c2c1,EC50,[1],> 195 µM (not active)
Cc1nc2ccc(N3CCN(C)CC3)cc2nc1C,EC50,[10],> 300 µM (not active)
same,EC50,[11],> 300 µM (not active)
COc1ccc(CNC(=O)CCCn2nc([N+](=O)[O-])cc2C)cc1,IC50,[2],< 0.4 µM (not active)
O=C(CN1CCN(C(=O)c2ccccc2)CC1)Nc1ncc(Br)cc1Br,EC50,[1],> 195 µM (not active)
Cc1ccc(C(=O)N/C(=C\c2cccc([N+](=O)[O-])c2)C(=O)NCc2ccncc2)cc1,EC50,[8],> 112 µM (not active)
same,EC50,[9],38.4 µM (active)
CC(OC(=O)c1nsc(Cl)c1Cl)C(=O)NCc1ccc2c(c1)OCO2 (stereo unspecified),EC50,[1],> 195 µM (not active)
CC(=O)NCc1cn2c(C)csc2n1,EC50,[8],> 112 µM (not active)
same,EC50,[9],> 112 µM (not active)
CC1(C)CC(=O)C2=C(C1)OC(N)=C(C#N)C2c1ccccc1OC(=O)N1CCOCC1 (stereo unspecified),EC50,[10],> 300 µM (not active)
same,EC50,[11],> 300 µM (not active)
Cc1cccn2c(=O)c3cc(C(=O)NCC4CCCO4)c(=N)n(CCc4ccccc4)c3nc12 (stereo unspecified),EC50,[10],102 µM (active)
same,EC50,[11],7.9 µM (inconclusive)
N#Cc1nc(COc2ccccc2)oc1N1CCN(c2cccc(Cl)c2)CC1,IC50,[2],34.3 µM (not active)
COc1cc(Cl)c(C)cc1NC(=O)CNC(C)c1ccccc1OC (stereo unspecified),IC50,[2],> 50 µM (not active)
COc1ccc(N(CC(=O)N/N=C/c2ccc(-c3ccc([N+](=O)[O-])cc3)o2)S(=O)(=O)c2ccc(C)cc2)cc1,EC50,[8],> 112 µM (not active)
same,EC50,[9],> 112 µM (not active)
COc1ccccc1/C=N/NC(=S)NCc1ccco1,IC50,[2],8.4 µM (active)
O=C(Cc1c[nH]c2ccccc12)N/N=C/c1ccccc1O,EC50,[8],> 112 µM (not active)
same,EC50,[9],> 112 µM (not active)
COc1ccc(Cn2nnnc2CN2CCc3ccccc3C2)cc1,EC50,[1],> 195 µM (not active)
